Data from the supplement of paper PMC10307832.

How the values were obtained:
Test in all cases: relative viability (nuclei count vs DMSO), 5 days (fraction); higher = more cells survive
NCI-H596 = system: NCI-H596
Summary of the method: (§1)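 After 5 days of treatment, lung cancer cells in 1536-well plates were fixed and stained in a single step (final 0.05% Triton X-100, 1% formaldehyde, 1 ug/ml Hoechst) and their nuclei counted on 4× images. Treatment had been applied by pin tool the day after seeding as one drug alone or as a fixed anchor-drug dose with five library-drug doses (not always all listed) in √10 steps. Relative viability is the nuclei count of treated wells divided by that of vehicle wells, and values are medians of duplicate plates.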

H3255 = system: H3255
Summary of the method: as §1

EKVX = system: EKVX
Summary of the method: as §1

NCI-H1755 = system: NCI-H1755
Summary of the method: as §1

LK-2 = system: LK-2
Summary of the method: as §1

HCC-366 = system: HCC-366
Summary of the method: as §1

NCI-H1944 = system: NCI-H1944
Summary of the method: as §1

NCI-H1734 = system: NCI-H1734
Summary of the method: as §1

PC-3 [JPC-3] = system: PC-3 [JPC-3]
Summary of the method: as §1

NCI-H1975 = system: NCI-H1975
Summary of the method: as §1

NCI-H2170 = system: NCI-H2170
Summary of the method: as §1

NCI-H1666 = system: NCI-H1666
Summary of the method: as §1

NCI-H1563 = system: NCI-H1563
Summary of the method: as §1

NCI-H520 = system: NCI-H520
Summary of the method: as §1

SW 900 = system: SW 900
Summary of the method: as §1

NCI-H23 = system: NCI-H23
Summary of the method: as §1

ChaGo-K-1 = system: ChaGo-K-1
Summary of the method: as §1

COR-L 105 = system: COR-L 105
Summary of the method: as §1

A-427 = system: A-427
Summary of the method: as §1

SK-MES-1 = system: SK-MES-1
Summary of the method: as §1

NCI-H441 = system: NCI-H441
Summary of the method: as §1

LOU-NH91 = system: LOU-NH91
Summary of the method: as §1

EMC-BAC-2 = system: EMC-BAC-2
Summary of the method: as §1

`COc1cc(N2CCC(C(N)=O)CC2)ccc1Nc1nc(N)c(Cl)c(Nc2ccccc2S(=O)(=O)C(C)C)n1` [HG-5-88-01] + COc1cc2c(Oc3ccc(NC(=O)C4(C(=O)Nc5ccc(F)cc5)CC4)cc3F)ccnc2cc1OCCCN1CCOCC1 [Foretinib] (partner 0.25 µM) was tested, and the relative viability (NCI-H596; first compound 0.04 µM) was 0.956, the relative viability (NCI-H596; first compound 0.1265 µM) was 0.871 and the relative viability (NCI-H596; first compound 0.4 µM) was 0.801. It also gave a relative viability (NCI-H596; first compound 1.265 µM) of 0.895, a relative viability (NCI-H596; first compound 4 µM) of 0.487 and a relative viability (H3255; first compound 0.04 µM) of 0.854. For the same compound, the relative viability (H3255; first compound 0.1265 µM) was 0.874, the relative viability (H3255; first compound 0.4 µM) was 0.856 and the relative viability (H3255; first compound 4 µM) was 0.649. The relative viability (EKVX; first compound 0.04 µM) was 0.876, the relative viability (EKVX; first compound 0.1265 µM) was 0.759 and the relative viability (EKVX; first compound 0.4 µM) was 0.305. For the same compound, the relative viability (EKVX; first compound 4 µM) was 0.757, the relative viability (NCI-H1755; first compound 0.04 µM) was 0.876 and the relative viability (NCI-H1755; first compound 0.1265 µM) was 0.895. It also gave a relative viability (NCI-H1755; first compound 0.4 µM) of 0.863, a relative viability (NCI-H1755; first compound 1.265 µM) of 0.858 and a relative viability (NCI-H1755; first compound 4 µM) of 0.873. For the same compound, the relative viability (LK-2; first compound 0.04 µM) was 1.13, the relative viability (LK-2; first compound 0.1265 µM) was 1.39 and the relative viability (LK-2; first compound 0.4 µM) was 0.784. It also gave a relative viability (LK-2; first compound 1.265 µM) of 0.99, a relative viability (LK-2; first compound 4 µM) of 0.808 and a relative viability (HCC-366; first compound 0.04 µM) of 0.955. For the same compound, the relative viability (HCC-366; first compound 0.1265 µM) was 0.915, the relative viability (HCC-366; first compound 0.4 µM) was 0.909 and the relative viability (HCC-366; first compound 1.265 µM) was 0.856. The relative viability (HCC-366; first compound 4 µM) was 0.45, the relative viability (NCI-H1944; first compound 0.04 µM) was 0.874 and the relative viability (NCI-H1944; first compound 0.1265 µM) was 0.884. It also gave a relative viability (NCI-H1944; first compound 0.4 µM) of 0.917, a relative viability (NCI-H1944; first compound 1.265 µM) of 0.883 and a relative viability (NCI-H1944; first compound 4 µM) of 0.886. It also gave a relative viability (NCI-H1734; first compound 0.04 µM) of 1.05, a relative viability (NCI-H1734; first compound 0.1265 µM) of 0.8 and a relative viability (NCI-H1734; first compound 0.4 µM) of 0.793. The relative viability (NCI-H1734; first compound 1.265 µM) was 0.576, the relative viability (NCI-H1734; first compound 4 µM) was 0.644 and the relative viability (PC-3 [JPC-3]; first compound 0.04 µM) was 1.07. The relative viability (PC-3 [JPC-3]; first compound 0.1265 µM) was 1.04, the relative viability (PC-3 [JPC-3]; first compound 0.4 µM) was 1.03 and the relative viability (PC-3 [JPC-3]; first compound 1.265 µM) was 0.99. The relative viability (PC-3 [JPC-3]; first compound 4 µM) was 0.724, the relative viability (NCI-H1975; first compound 0.04 µM) was 1.08 and the relative viability (NCI-H1975; first compound 0.1265 µM) was 0.923. It also gave a relative viability (NCI-H1975; first compound 0.4 µM) of 0.814, a relative viability (NCI-H1975; first compound 1.265 µM) of 0.916 and a relative viability (NCI-H1975; first compound 4 µM) of 0.397. The relative viability (NCI-H2170; first compound 0.04 µM) was 1.01, the relative viability (NCI-H2170; first compound 0.1265 µM) was 0.973 and the relative viability (NCI-H2170; first compound 0.4 µM) was 0.967. It also gave a relative viability (NCI-H2170; first compound 1.265 µM) of 0.947, a relative viability (NCI-H2170; first compound 4 µM) of 1.12 and a relative viability (NCI-H1666; first compound 0.04 µM) of 1.06. For the same compound, the relative viability (NCI-H1666; first compound 0.1265 µM) was 1.06, the relative viability (NCI-H1666; first compound 0.4 µM) was 1 and the relative viability (NCI-H1666; first compound 1.265 µM) was 0.74. It also gave a relative viability (NCI-H1666; first compound 4 µM) of 0.677, a relative viability (NCI-H1563; first compound 0.04 µM) of 1 and a relative viability (NCI-H1563; first compound 0.1265 µM) of 1.01. It also gave a relative viability (NCI-H1563; first compound 0.4 µM) of 0.963, a relative viability (NCI-H1563; first compound 1.265 µM) of 0.866 and a relative viability (NCI-H1563; first compound 4 µM) of 0.833. The relative viability (NCI-H520; first compound 0.04 µM) was 0.705, the relative viability (NCI-H520; first compound 0.1265 µM) was 0.942 and the relative viability (NCI-H520; first compound 0.4 µM) was 0.629. The relative viability (NCI-H520; first compound 1.265 µM) was 0.828, the relative viability (NCI-H520; first compound 4 µM) was 0.76 and the relative viability (SW 900; first compound 0.04 µM) was 0.996. For the same compound, the relative viability (SW 900; first compound 0.1265 µM) was 1.08, the relative viability (SW 900; first compound 0.4 µM) was 0.926 and the relative viability (SW 900; first compound 1.265 µM) was 0.918. It also gave a relative viability (SW 900; first compound 4 µM) of 0.493, a relative viability (NCI-H23; first compound 0.04 µM) of 1.08 and a relative viability (NCI-H23; first compound 0.1265 µM) of 1.06. The relative viability (NCI-H23; first compound 0.4 µM) was 0.972, the relative viability (NCI-H23; first compound 1.265 µM) was 0.729 and the relative viability (NCI-H23; first compound 4 µM) was 0.515. It also gave a relative viability (ChaGo-K-1; first compound 0.04 µM) of 0.761, a relative viability (ChaGo-K-1; first compound 0.1265 µM) of 1.03 and a relative viability (ChaGo-K-1; first compound 0.4 µM) of 0.804. For the same compound, the relative viability (ChaGo-K-1; first compound 1.265 µM) was 0.942, the relative viability (ChaGo-K-1; first compound 4 µM) was 0.909 and the relative viability (COR-L 105; first compound 0.04 µM) was 1.05. For the same compound, the relative viability (COR-L 105; first compound 0.1265 µM) was 1.11, the relative viability (COR-L 105; first compound 0.4 µM) was 1.16 and the relative viability (COR-L 105; first compound 1.265 µM) was 0.969. For the same compound, the relative viability (COR-L 105; first compound 4 µM) was 0.629, the relative viability (A-427; first compound 0.04 µM) was 1.13 and the relative viability (A-427; first compound 0.1265 µM) was 1.13. For the same compound, the relative viability (A-427; first compound 0.4 µM) was 0.953, the relative viability (A-427; first compound 1.265 µM) was 1.08 and the relative viability (A-427; first compound 4 µM) was 1.08. For the same compound, the relative viability (SK-MES-1; first compound 0.04 µM) was 0.875, the relative viability (SK-MES-1; first compound 0.1265 µM) was 0.808 and the relative viability (SK-MES-1; first compound 0.4 µM) was 0.827. The relative viability (SK-MES-1; first compound 1.265 µM) was 0.684, the relative viability (SK-MES-1; first compound 4 µM) was 0.996 and the relative viability (NCI-H441; first compound 0.04 µM) was 0.889. It also gave a relative viability (NCI-H441; first compound 0.1265 µM) of 1.06, a relative viability (NCI-H441; first compound 0.4 µM) of 1 and a relative viability (NCI-H441; first compound 1.265 µM) of 0.771. The relative viability (NCI-H441; first compound 4 µM) was 0.839, the relative viability (LOU-NH91; first compound 0.04 µM) was 0.905 and the relative viability (LOU-NH91; first compound 0.1265 µM) was 0.902. For the same compound, the relative viability (LOU-NH91; first compound 0.4 µM) was 0.872, the relative viability (LOU-NH91; first compound 1.265 µM) was 0.455 and the relative viability (LOU-NH91; first compound 4 µM) was 0.672. For the same compound, the relative viability (EMC-BAC-2; first compound 0.04 µM) was 1.06, the relative viability (EMC-BAC-2; first compound 0.1265 µM) was 1.09 and the relative viability (EMC-BAC-2; first compound 0.4 µM) was 0.973. The relative viability (EMC-BAC-2; first compound 1.265 µM) was 0.787 and the relative viability (EMC-BAC-2; first compound 4 µM) was 0.795.
